Experiments:
[1] = system: RET-expressing reporter cell line (RET alone); experiment: Reporter-gene luciferase activity assay, dose-response (FIG. 5); assay type: cell-based; conditions: cells expressing RET alone; 1-50 μM, 24 h
Procedure: Generation of stable cell lines. MG87RET murine fibroblast were plated on […] dishes and transfected with 4 μg of G4-Luc, Gal4-Elk (Baloh et al., 2000) and GFRα1 expressing plasmid (“αLUC” cells) or empty vector (“NOα” cells) containing neomycin-resistance gene in ratio 4:1:1 using Lipofectamine 2000 (Invitrogen) for DNA delivery as described by manufacturer. The following day, cells were trypsinized and plated in low density on 10-cm tissue culture dishes. Stable transformants were selected in the presence of 500-750 μg/ml geneticin (Invitrogen). Established cell lines were maintained in DMEM, 10% fetal bovine serum (FBS), 100 μg/ml Normocin (Invivogene), 2 μg/ml of puromycin, 500 μg/ml of geneticin, 15 mM HEPES, pH 7.2. Pathdetect Elk-1 system and human GFRα1-expressing plasmid (“Strat-Luc” cells) or empty vector (control cell line “NOStratis”) cells were selected and maintained in the DMEM, 10% FBS, 100 μg/ml Normocin (Invivogene), 2 μg/ml of puromycin, 500 μg/ml of G418, 2 μg/ml of blasticidin S, 15 mM HEPES, pH 7.2.
(§1) Cells were plated on 96-well plates (or 384-well) in cell density 20 000 (or 5 000 for 384-well format) cells per well in DMEM, 10% FBS, 100 μg/ml Normocin, 2 μg/ml puromycin, 500 μg/ml of G418, 15 mM HEPES, pH 7.2 one day before assay. The following day, the compounds were added to a final concentration of 1-50 μM. Structures of the compounds are shown in the description of FIG. 5, above. Cells were allowed to produce luciferase for 24 h, then lysed in 20 μl of 1×Cell culture lysis reagent (Promega) and freeze-thawed once to ensure complete lysis. Then 5 μl of the lysate was mixed (on ice) with 20 μl of luciferase assay substrate (Promega) in a well of black Isoplate (PerkinElmer). Luminescence was counted on MicroBeta 2 counter (PerkinElmer) twice. Data are presented as fold induction, where the corresponding concentration of DMSO was used as a reference.

[2] = system: 6-OHDA lesioned rats; experiment: Amphetamine induced rotation asymmetry in 6-OHDA rat model of Parkinson's disease (FIG. 7); assay type: in vivo; conditions: for amphetamine-induced ipsilateral rotation of lesioned rats: injected into striatum 3 weeks after 6-OHDA, dose not stated; for amphetamine-induced ipsilateral rotation: 3 weeks after 6-OHDA, measured 6 weeks after 6-OHDA
Description: The objective of this study is to investigate the effect of intrastriatally (i.s.) administered small molecule GDNF mimetics (compounds 13, 16, 319H6 and 292651, structures shown in the description of the Figures, above) in a rat model 6-OHDA of Parkinson's disease. In the sub-acute lesion model used in this study, the lesion of the substantia nigra (SNc) that slowly progresses over weeks is created by injection of 6-OHDA into the proximity of the dopaminergic terminals in the striatum (Kirik-D 1998, Exp. Neurol. 152:259-277). In this model, a portion of the nigrostriatal projection is left intact, which can serve as a substrate for regeneration and functional recovery in response to growth promoting and neuroprotective agents.
GDNF mimetics compounds, GDNF or vehicle is administered to the striatum at 3 weeks after the exposure to the neurotoxin 6-OHDA. The selective damage to dopaminergic neurons in the SNc, as well as striatal levels of dopamine and its metabolites are evaluated 12 weeks after the injection of 6-OHDA with tyrosine hydroxylase (TH) immunohistochemistry and HPLC, respectively. In addition, the behavioral impairment of rats is evaluated by forelimb asymmetry test (cylinder test), amphetamine induced rotation asymmetry test and Y-maze test for stereotypic spontaneous rotation deficits.
Animals: All animal experiments are carried out according to the National Institute of Health (NIH) guidelines for the care and use of laboratory animals, and approved by the State Provincial Office of Southern Finland. Altogether 108 male Wistar rats, purchased from Charles River, Germany and weighing 220-275 g are used for the experiment. Animals are housed at a standard temperature (22±1° C.) and in a light-controlled environment (lights on from 7 am to 8 pm) with ad libitum access to food and water. Animals are grouped as follows:
In order to generate partial retrograde degeneration into the SNc, 6-OHDA lesioning is carried out according to Sauer and Oertel with modifications (Sauer and Oertel, 1994). Male Wistar rats are anesthetized with 5% isoflurane (in 70% N2O and 30% O2; flow 300 ml/min) and placed in a stereotactic frame. During the operation concentration of anesthetic is reduced to 1-1.5%. The rectal temperature is maintained at 37.0±1.0° C. with a homeothermic blanket system. The right brain hemisphere is exposed through a small craniectomy to the skull. The dura mater is carefully removed with fine forceps and a stereotaxic injection of 6-OHDA (4 μg/μl) is made into the right striatum. A total of 7 μl of 6-OHDA is infused at a speed of 0.5 μl/min and is equally distributed between 4 sites at the following coordinates: AP+1.0, ML+2.8, DV−6.0, −5.5, −5.0 and −4.4 mm. The cannula is left in place for another 5 min before being withdrawn. The hole in the skull is subsequently filled with repair material and the skin is closed and disinfected. The rats are allowed to recover from anesthesia and are carefully monitored for possible post surgical complications. The animals are returned to the home cages with ad libitum access to food and water.
On day 21, rats are re-anesthetized with 5% isoflurane (in 70% N2O and 30% O2; flow 300 ml/min) and placed in a stereotactic frame. During the operation concentration of anesthetic is reduced to 1-1.5%. The rectal temperature is maintained at 37.0±1.0° C. with a homeothermic blanket system. The right brain hemisphere is exposed through a small craniectomy to the skull. A stereotaxic injection of the test compound, GDNF or vehicle is made into the right striatum. Each dosing solution is infused at a speed of 1 μl/min and is equally distributed between 4 sites at the following coordinates: AP+1.0, ML+2.8, DV−6.0, −5.5, −5.0 and −4.4 mm. The cannula is left in place for another 5 min before being withdrawn. The hole in the skull is subsequently filled with repair material and the skin is closed and disinfected. […]

[3] = system: GFRα3/RET-expressing reporter cell line; experiment: Reporter-gene luciferase activity assay, dose-response (FIG. 5); assay type: cell-based, human; conditions: GFRα3/RET cells; 1-50 μM, 24 h
Description: Full-length flag-tagged rat Gfrα1 cDNA (Leppänen et al., 2004) subcloned into in pcDNA3 (Invitrogen). Full-length human GFRα1 cDNA (Sidorova et al., unpublished) subcloned in pcDNA6 (Invitrogen). Full-length human GFRα3 cDNA (Wang et al., 2006). Full-length human RET (long isoform) (Runeberg-Roos et al., 2007) in pCR3.1 (Invitrogen). The MAPK activation detection system (Baloh et al., 2000) and PathDetect Elk-1 (Stratagene) both of which include two plasmids. First one constitutively expresses MAPK pathway specific fusion transactivator, that consists of activation domain of Elk-1 and DNA-binding domain of the yeast GAL4 protein (Gal4-Elk1). The other plasmid, Gal4-Luc, carries luciferase gene under the control of a synthetic promoter containing the yeast GAL4 binding sequences.
as §1

Structure (SMILES)	induction of luciferase expression [1]	amphetamine-induced ipsilateral rotation of lesioned rats [2]	amphetamine-induced ipsilateral rotation ([2]; intrastriatal (Group 5: 0.5 ug per rat))	induction of luciferase expression [3]	amphetamine-induced ipsilateral rotation ([2]; 1 ug intrastriatal)	amphetamine-induced ipsilateral rotation ([2]; 0.2 ug intrastriatal)
COc1ccc(S(=O)(=O)N2CCc3ccccc3C2)cc1N1CCN(C(=O)c2cc(F)ccc2C(F)(F)F)CC1 [BT16]	No significant effect	significantly reduce	reduced amphetamine-induced ipsilateral rotation	in a dose-dependent manner induce luciferase expression		
COc1cc2c(cc1OC)CN(S(=O)(=O)c1ccc(OC)c(N3CCN(C(=O)c4cc(F)ccc4C(F)(F)F)CC3)c1)CC2 [BT18]		significantly reduce			reduced amphetamine-induced ipsilateral rotation	
CCN(CC)S(=O)(=O)c1ccc(OC)c(N2CCN(C(=O)c3cc(F)ccc3C(F)(F)F)CC2)c1 [BT13]	No significant effect	significantly reduce		in a dose-dependent manner induce luciferase expression		reduced amphetamine-induced ipsilateral rotation

Source: US8901129B2, “Methods of facilitating neural cell survival using GDNF family ligand (GFL) mimetics or RET signaling pathway activators” (GeneCode AS, priority 2009, dated 2014)
